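Dose response: 5 concentrations. Exposure: 48 h. Format: 96-well plates. Endpoint: linear interpolation; highest concentration if not reached. The concentration for 50% growth inhibition is given as GI50. The concentration for full growth arrest is given as TGI.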 Where a SMILES comes first, the peptide text is derived from it. Bridges are numbered along the chain shown (N, C = ends). [ ]: non-standard residue; d: D form. The star is where a group is joined. ξ: configuration not given here. ξDab(CH2SO3H) = NC(CCNCS(=O)(=O)O)C(=O)O; Heptanoyl(6-Me) = CC(C)CCCCC(=O)*; Dab = NCC[CH](N)C(=O)O

Test systems include RPMI-8226 leukemia; SN12C renal; HCT-15 colon; UACC-62 melanoma; HOP-62 NSCLC; A498 renal; SR leukemia; HT29 colon.
Common to all, as to experiment: NCI anticancer screen, dose series, 48 h

As for `COc1ccc(Nc2cc(C)nc(NCc3ccccc3)n2)cc1`, the GI50 in the assay with RPMI-8226 leukemia is 1.81 µM; with SN12C renal, 5.28 µM; in the assay with HCT-15 colon, 2.8 µM; in the assay on UACC-62 melanoma, 2.84 µM; with HOP-62 NSCLC, 9.92 µM; in the assay on A498 renal, 1.83 µM. The values for the GI50 with SR leukemia and in the assay with HT29 colon were 3.32 µM and 2.81 µM, respectively. Moreover, the TGI in the assay with RPMI-8226 leukemia came to 7.41 µM; in the assay on SN12C renal it was 20.4 µM; in the assay with HCT-15 colon, 11.9 µM; in the assay on UACC-62 melanoma, 14.4 µM; with HOP-62 NSCLC, 24.9 µM; with A498 renal, 13.6 µM. Besides, the TGI in the assay on SR leukemia came to 13 µM; with HT29 colon, 12.7 µM.

Regarding `C[C@]12CC[C@@H]3c4cc(O)c(O)cc4CC[C@H]3[C@@H]1CC[C@@H]2O`, the GI50 is 3.99 µM in the assay with RPMI-8226 leukemia; 6.21 µM with SN12C renal; 0.877 µM in the assay on HCT-15 colon; 3.9 µM in the assay on UACC-62 melanoma; 4.08 µM in the assay on HOP-62 NSCLC; 19.7 µM in the assay on A498 renal. Moreover, the GI50 is 0.576 µM in the assay on SR leukemia and 27.2 µM with HT29 colon. Also, the TGI was 30.3 µM in the assay with RPMI-8226 leukemia; more than 100 µM with SN12C renal; 24.8 µM with HCT-15 colon; 29.1 µM in the assay on UACC-62 melanoma; 54.6 µM in the assay on HOP-62 NSCLC; 62.3 µM in the assay on A498 renal. For the same compound, the TGI amounted to 48.5 µM with SR leukemia and 61.3 µM in the assay with HT29 colon.

For the compound `N=C(N)SCc1c2ccccc2c(CSC(=N)N)c2ccccc12`, the GI50 with RPMI-8226 leukemia is 2.56 µM; in the assay on SN12C renal it was 3 µM; with HCT-15 colon it was 12.4 µM; in the assay with UACC-62 melanoma, 3.59 µM; with HOP-62 NSCLC, 10.5 µM; with A498 renal it was 7.42 µM. Also, the values for the GI50 in the assay with SR leukemia and in the assay on HT29 colon were 0.408 µM and 5.94 µM, respectively. For the same compound, the TGI in the assay with RPMI-8226 leukemia turned out to be 16.8 µM; with SN12C renal it was 25.7 µM; in the assay with HCT-15 colon it was 32.4 µM; with UACC-62 melanoma it was 20.3 µM; in the assay with HOP-62 NSCLC, 26.5 µM; in the assay on A498 renal it was 22.9 µM. For the same compound, the figures for the TGI with SR leukemia and in the assay on HT29 colon were 3.03 µM and 21.9 µM, respectively.

As to `CC(=O)Nc1c(I)c(NC(C)=O)c(I)c(C(=O)O)c1I`, the GI50 in the assay with RPMI-8226 leukemia, in the assay on SN12C renal, in the assay on HCT-15 colon, with UACC-62 melanoma, in the assay on HOP-62 NSCLC and in the assay on A498 renal was more than 100 µM throughout. Besides, the GI50 in the assay with SR leukemia and in the assay with HT29 colon was more than 100 µM each time. Further, the TGI in the assay with RPMI-8226 leukemia, in the assay with SN12C renal, in the assay on HCT-15 colon, in the assay with UACC-62 melanoma, in the assay on HOP-62 NSCLC and with A498 renal was more than 100 µM in each case. Besides, the TGI in the assay on SR leukemia and with HT29 colon was more than 100 µM throughout.

Regarding `CN1CCC2(CC1)NC(=O)c1c(c3ccc(Cl)c(Cl)c3n1C)C2C#N` (stereo unspecified), the GI50 is 2.94 µM in the assay on RPMI-8226 leukemia; 5.82 µM with SN12C renal; 3.98 µM with HCT-15 colon; 1.66 µM with UACC-62 melanoma; 9.72 µM in the assay with HOP-62 NSCLC; 9.05 µM in the assay with A498 renal. The values for the GI50 with SR leukemia and in the assay on HT29 colon were 1.65 µM and 3.95 µM, respectively. The TGI in the assay with RPMI-8226 leukemia amounted to 13.3 µM; in the assay on SN12C renal it was 31.2 µM; in the assay on HCT-15 colon, 15.6 µM; in the assay on UACC-62 melanoma, 3.22 µM; in the assay on HOP-62 NSCLC, 23.2 µM; with A498 renal it was 24.1 µM. Besides, the results for the TGI in the assay on SR leukemia and in the assay with HT29 colon were 5.36 µM and 23.6 µM, respectively.

Consider `CCNC(=O)Nc1ccc(Oc2ccnc3ccc4c(ccn4C)c23)cc1`, for which the GI50 was more than 100 µM with RPMI-8226 leukemia; 20.9 µM with SN12C renal; 37.9 µM in the assay on HCT-15 colon; 19.5 µM with UACC-62 melanoma; 46.9 µM with HOP-62 NSCLC; 12.1 µM with SR leukemia. Moreover, in the assay with HT29 colon, the GI50 is 44.6 µM. The TGI in the assay with RPMI-8226 leukemia was more than 100 µM; with SN12C renal it was 43.8 µM; with HCT-15 colon, more than 100 µM; with UACC-62 melanoma, 39.3 µM; with HOP-62 NSCLC, more than 100 µM; in the assay with SR leukemia it was more than 100 µM. This compound gave a TGI in the assay on HT29 colon of more than 100 µM.

Regarding `CCCCCCCCCCCC(=O)N1CCN(C(C)=O)CC1`, the GI50 is 16.8 µM with RPMI-8226 leukemia; 18.8 µM in the assay on SN12C renal; 40.2 µM in the assay with HCT-15 colon; 19.7 µM with UACC-62 melanoma; 18.1 µM with HOP-62 NSCLC; 62.7 µM in the assay with A498 renal. For the same compound, in the assay with SR leukemia, the GI50 was 22 µM. Also, the TGI in the assay with RPMI-8226 leukemia is 35.7 µM; in the assay on SN12C renal, 37.3 µM; in the assay with HCT-15 colon, more than 100 µM; with UACC-62 melanoma, 34.9 µM; with HOP-62 NSCLC, 36.4 µM; in the assay on A498 renal, more than 100 µM. The same compound yielded a TGI in the assay on SR leukemia of 53.5 µM.

`CCC(C)C1NC(=O)C(CCNCS(=O)(=O)O)NC(=O)C(NC(=O)C(CCNCS(=O)(=O)O)NC(=O)C(NC(=O)C(CCNCS(=O)(=O)O)NC(=O)CCCCC(C)C)C(C)O)CCNC(=O)C(C(C)O)NC(=O)C(CCNCS(=O)(=O)O)NC(=O)C(CCNCS(=O)(=O)O)NC(=O)C(C(C)CC)NC1=O` (stereo unspecified) ({Heptanoyl(6-Me)}-[ξDab(CH2SO3H)]T[ξDab(CH2SO3H)][Dab][ξDab(CH2SO3H)]II[ξDab(CH2SO3H)][ξDab(CH2SO3H)]T; lactam 4-C; configuration not given here): the GI50 in the assay with SN12C renal is 11.2 µM; in the assay on HCT-15 colon it was more than 25 µM; in the assay with UACC-62 melanoma, 7.44 µM; with HOP-62 NSCLC, 8.74 µM; in the assay with A498 renal, 7.07 µM; in the assay with SR leukemia, 1.32 µM. Besides, the GI50 in the assay on HT29 colon is 7.92 µM. Further, the TGI in the assay on SN12C renal, in the assay on HCT-15 colon, with UACC-62 melanoma, in the assay on HOP-62 NSCLC, in the assay on A498 renal and in the assay on SR leukemia was more than 25 µM throughout. In the assay on HT29 colon, this compound had a TGI of more than 25 µM.

On to `N/C(=N/N=C/c1ccccc1)N/N=C\c1ccccc1`, for which the GI50 in the assay with RPMI-8226 leukemia is 5.21 µM; with SN12C renal, 5.6 µM; in the assay on HCT-15 colon, 3.72 µM; in the assay on UACC-62 melanoma, 7.92 µM; with HOP-62 NSCLC, 9.71 µM; with A498 renal, 6.03 µM. Moreover, the GI50 in the assay on HT29 colon is 3.25 µM. Moreover, the TGI in the assay with RPMI-8226 leukemia is 29.7 µM; in the assay with SN12C renal, more than 100 µM; with HCT-15 colon, 30.3 µM; with UACC-62 melanoma, 28.6 µM; with HOP-62 NSCLC, more than 100 µM; with A498 renal, more than 100 µM. In addition, the TGI with HT29 colon came out at 52 µM.

The values are drawn from PubChem BioAssay (NCI).
